# Source: patent publication US20240116885A1, “BENZOTHIAZOLE AND QUINOLINE DERIVATIVES AND THEIR USE” (Shanghai Yao Yuan Biotechnology Co., Ltd., priority 2020, published 2024)
# Structures can show the parent of a compound that is named as a salt.
# Experiments:
# [1] = target: hALPK1-V1092A (Homo sapiens (Human), UniProt Q96QP1, V1092A); experiment: Inhibition of IL-8 secretion in HEK293 cells transiently transfected with hALPK1-V1092A; assay type: cell-based; conditions: transient transfection, 24 hours with compound, IL-8 ELISA, relative to wild-type HEK293 cells; read-out: Half maximal inhibitory concentration (IC50) of IL-8 secretion in cells expressing V1092A mutant
# Excerpt: (§1) Activating mutations in ALPK1 are associated with diseases and disorders such as cancer, spiroandenoma, spiroandenocarcinoma, ROSAH syndrome, and PFAPA syndrome. We conducted further experiments to evaluate the ability of representative compounds to inhibit ALPK1 in the context of two activating mutations, T237M and V1092A. In preliminary experiments we determined that IL-8 protein secretion was elevated in cells transiently transfected with human ALPK1 expression vectors containing each of these activating mutations. Accordingly, we used IL-8 secretion as an indicator of activated ALPK1 inhibition in cells expressing these mutations.
# (§2) HEK293 cells were cultured as described above prior to transient transfection with either empty vector or an expression vector encoding (i) human ALPK1 (hALPK1), (ii) hALPK1 with the T237M activating mutation (hALPK1-T237M) (iii) hALPK1 with the V1092A activating mutation (hALPK1-V1092A), or (iv) a kinase dead ALPK1 mutant (hALPK1-T237M-D1194S). Transfection was performed according to manufacturer's protocols (Lipofectamine™ 3000, ThermoFisher). Transfected cells were selected, seeded onto 96-well plates and treated with serial dilutions of the test compounds for 6.5 hr. Following treatment, cell viability was determined using a luminescent cell viability assay (Cell Counting-Lite Assay or “CCL Assay” from Vazyme Biotech Co., Ltd.) and cell free supernatants were collected and analyzed for IL-8 protein by IL-8 ELISA as described above. […] As shown in the figure, very little IL-8 was detectable in cells transfected with any of the empty vector, hALPK1, or the kinase dead hALPK1 mutant. In contrast, both of the activating mutations in hALPK1 induced significant IL-8 secretion.
# For the V1092A mutant study shown in Table 4, HEK293 cells were transiently transfected with hALPK1-V1092A or hALPK1 (wildtype) expression vectors and then treated with test compounds for 24 hours. Fresh medium and compound were added at 18 hours.
# [2] = target: ALPK1 (Homo sapiens (Human), UniProt Q96QP1); experiment: ALPK1 in vitro kinase assay (HTRF, TIFA phosphorylation); assay type: biochemical; conditions: ADP-Heptose activated ALPK1
# Procedure: ALPK1 kinase activity was measured in an in vitro assay using ADP-Heptose as the ALPK1 ligand and activator of its kinase activity and TIFA protein as the ALPK1 phosphorylation substrate. Since phosphorylated TIFA proteins oligomerize, Homogeneous Time-Resolved Fluorescence (HTRF) was used to measure protein:protein interaction between HA-tagged TIFA proteins as an indicator of TIFA phosphorylation.
# In brief, dose-response studies were performed with HEK293 cells cultured in Dulbecco's Modified Eagle Medium (DMEM) supplemented 10% fetal bovine serum (FBS, Hyclone™) containing antibiotics (pen/strep, G418) in 384-well assay plates. Each well contained 0.1 mg TIFA, ALPK1 (2 nM final concentration in reaction mixture) and kinase buffer (100 mM of HEPES pH 7.4, 4 mM DTT, 40 mM MgCl2, 20 mM of β-Glycerol phosphate disodium salt, 0.4 mM of Na3VO4, 0.16 mg/mL). Titrations of the test compounds were prepared in dimethylsulphoxide (DMSO). The reaction was initiated by addition of ATP and ADP-Heptose.
# For HTRF, samples were incubated with a Tb cryptate-labeled anti-HA antibody for capturing HA-tagged proteins according to the manufacturer's instructions (PerkinElmer™, CisBio™) and the fluorescence signal was quantified (Tecan Infinite F NANO+). HTRF signals were calculated as the HTRF ratio (ratio of fluorescence measured at 665 nm and 620 nm)×104 (thereby using the signal at 620 nm as an internal standard).
# IC50 values were determined using 3- or 4-parameter logistic equation using GraphPad Prism version 6.00. The reference compound, A027, was used as a positive control for each plate.
# [3] = target: T237M hALPK1 mutant (Homo sapiens (Human), UniProt Q96QP1, T237M); experiment: Inhibition of IL-8 secretion in HEK293 cells (A2) stably expressing T237M hALPK1 mutant; assay type: cell-based; conditions: 40 hours with compound, IL-8 ELISA, relative to wild-type HEK293 cells, read-out: Half maximal inhibitory concentration (IC50) of IL-8 secretion in cells expressing T237M mutant
# Excerpt: as §1, §2
# Next, we tested a representative set of compounds for inhibition of IL-8 secretion in cells expressing each of the activating ALPK1 mutants, T237M and V1092A. […] For the T237M mutant study, we produced an HEK293 cell line (“A2”) stably expressing the T237M hALPK1 mutant. A2 cells were cultured in the presence of test compound for 40 hours total. Fresh medium and compound were added at 24 hours. Cell viability and IL-8 secretion were determined 16 hours after the second addition of compound, using the CCL assay and IL-8 ELISA as described above.
# [4] = test system: ALPK1-dependent NFκB reporter gene activation; experiment: NFκB gene reporter alkaline phosphatase assay in HEK293 G9 cells; assay type: cell-based; conditions: Homo sapiens; HEK293 G9 cells stimulated with D-glycero-D-manno-6-fluoro-heptose-1β-S-ADP
# Procedure: An alkaline phosphatase reporter assay system was used to measure inhibition of ALPK1-dependent NFκB reporter gene activation. Briefly, HEK293 cells stably expressing an NF-kB reporter (referred to herein as “G9 cells”) were maintained in DMEM as described above. For the assay, cells were seeded into 96-well plates at a density of 10,000 cells/well in Freestyle™ 293 Expression Medium (ThermoFisher), and allowed to attach overnight. Cells were pretreated with serially diluted compounds for 30 min and then stimulated with D-glycero-D-manno-6-fluoro-heptose-1β-S-ADP. […] NFkB gene activation was detected using the chromogenic substrate, para-nitrophenyl phosphate (pNPP) according to the manufacturer's protocols (pNPP Phosphatase Assay, Beyotime Biotechnology).
# [5] = test system: Female MRL/MpJ-faslpr/J mice; experiment: Efficacy study in SLE animal model; assay type: in vivo, mouse; conditions: 50 mg/kg PO QD
# Procedure: A mouse model of systemic lupus erythematosus (SLE) was used to evaluate the ability of ALPK1 inhibitors to treat this condition. Female MRL/MpJ-faslpr/J mice were treated with test compound (T007) for 9 weeks. At about 13 weeks of age (study day 0), female mice were randomized into two treatment groups of 10 mice per group, and daily (QD) oral (PO) treatment with vehicle (5% PEG400, 95% methylcellulose [MC]) or the test compound, T007 (50 mg/kg) was initiated. The animals were euthanized for necropsy and tissue collection at age 22 weeks.
# [6] = test system: SD rat; experiment: Efficacy study in sepsis induced acute kidney injury animal model (cecal ligation and puncture); assay type: in vivo; conditions: 20 mg/kg 2 hours prior to surgery, 24 hours post-surgery
# Excerpt: Polymicrobial sepsis induced by cecal ligation and puncture (CLP) is the most frequently used model because it closely resembles the progression and characteristics of human sepsis. We used this model system to evaluate the effects of the compound T007 in sepsis. Briefly, the SD rat cecum was ligated with sterile silk thread, and then cecum was punctured twice with a needle, gently squeezed to express a small amount of fecal material, then the abdominal incision was closed. The test compound, T007 (20 mg/kg) was administered 2 hours prior to the surgery. 24 hours post-surgery, survival was recorded, plasma was collected for MCP-1 analysis, and kidneys were collected for gene expression analysis by Q-PCR.
# [7] = kidney histopathology (right kidneys), vs vehicle
# Chain of hALPK1-V1092A (Q96QP1 whole entry V1092A): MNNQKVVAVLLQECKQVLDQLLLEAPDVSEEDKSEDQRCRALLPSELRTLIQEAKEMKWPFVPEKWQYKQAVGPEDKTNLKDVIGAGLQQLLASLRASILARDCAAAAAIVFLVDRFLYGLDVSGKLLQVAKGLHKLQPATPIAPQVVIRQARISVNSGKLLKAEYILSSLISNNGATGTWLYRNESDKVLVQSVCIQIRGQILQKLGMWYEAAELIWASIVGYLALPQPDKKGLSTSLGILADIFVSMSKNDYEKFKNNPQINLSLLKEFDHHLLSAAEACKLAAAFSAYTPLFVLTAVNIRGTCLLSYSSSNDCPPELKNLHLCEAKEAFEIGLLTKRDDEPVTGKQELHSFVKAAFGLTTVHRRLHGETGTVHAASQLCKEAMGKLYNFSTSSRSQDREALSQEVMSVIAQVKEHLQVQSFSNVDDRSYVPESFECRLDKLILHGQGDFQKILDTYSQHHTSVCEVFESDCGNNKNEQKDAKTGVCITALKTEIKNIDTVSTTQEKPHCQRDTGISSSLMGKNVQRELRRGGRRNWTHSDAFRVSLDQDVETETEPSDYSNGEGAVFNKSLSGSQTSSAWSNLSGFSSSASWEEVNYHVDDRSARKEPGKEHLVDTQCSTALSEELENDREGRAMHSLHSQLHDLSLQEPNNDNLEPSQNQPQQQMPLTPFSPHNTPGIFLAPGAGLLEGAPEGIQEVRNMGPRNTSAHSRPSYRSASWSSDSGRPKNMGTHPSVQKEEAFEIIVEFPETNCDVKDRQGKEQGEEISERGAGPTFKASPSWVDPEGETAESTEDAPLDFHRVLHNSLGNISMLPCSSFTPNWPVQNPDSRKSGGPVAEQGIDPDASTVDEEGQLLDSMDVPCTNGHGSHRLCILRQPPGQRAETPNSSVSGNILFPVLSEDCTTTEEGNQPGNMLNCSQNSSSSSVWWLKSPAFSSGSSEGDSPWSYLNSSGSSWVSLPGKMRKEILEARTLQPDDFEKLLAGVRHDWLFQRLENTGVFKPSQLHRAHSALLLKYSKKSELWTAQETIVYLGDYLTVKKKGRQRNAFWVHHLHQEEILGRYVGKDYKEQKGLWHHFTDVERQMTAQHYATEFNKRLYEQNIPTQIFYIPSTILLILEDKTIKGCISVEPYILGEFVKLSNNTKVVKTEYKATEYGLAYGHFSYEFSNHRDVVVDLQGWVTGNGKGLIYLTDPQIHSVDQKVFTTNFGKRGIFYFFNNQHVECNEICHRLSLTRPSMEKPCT
# Chain of T237M hALPK1 mutant (Q96QP1 whole entry T237M): as the sequence (Q96QP1 whole entry V1092A) above, with T237M, A1092V counted along it
# Chain of ALPK1 (Q96QP1 whole entry): as the sequence (Q96QP1 whole entry V1092A) above, with A1092V counted along it
smiles,measurement,setting,value
"C#Cc1cccc2sc(NC(=O)c3c(F)cc(N4CCNC[C@@H]4C)cc3F)nc12 [Compound T054, (S)-N-(4-ethynylbenzo[d]thiazol-2-yl)-2,6-difluoro-4-(2-methylpiperazin-1-yl)benzamide]",IC50,[1],226 nM
same,IC50,[2],36 nM
same,IC50,[3],225 nM
same,IC50,[4],270 nM
"C#Cc1cccc2sc(NC(=O)c3c(F)cc(N4CCN(C)CC4)cc3F)nc12 [Compound T047, N-(4-ethynylbenzo[d]thiazol-2-yl)-2,6-difluoro-4-(4-methylpiperazin-1-yl)benzamide]",IC50,[1],1810 nM
same,IC50,[2],13 nM
same,IC50,[3],635 nM
same,IC50,[4],810 nM
"C#Cc1cc(F)cc2sc(NC(=O)c3c(F)ccc(N4CCNCC4)c3F)nc12 [Compound T064, N-(4-ethynyl-6-fluorobenzo[d]thiazol-2-yl)-2,6-difluoro-3-(piperazin-1-yl)benzamide]",IC50,[2],51 nM
same,IC50,[3],1690 nM
same,IC50,[4],1030 nM
"COc1cccc2sc(NC(=O)c3c(F)cc(N4CCNCC4)cc3F)nc12 [Compound T017, 2,6-difluoro-N-(4-methoxybenzo[d]thiazol-2-yl)-4-(piperazin-1-yl)benzamide hydrochloride]",IC50,[1],5030 nM
same,IC50,[2],14 nM
same,IC50,[3],1470 nM
same,IC50,[4],690 nM
"C#Cc1cccc2sc(NC(=O)c3c(F)ccc(N4CCNCC4)c3F)nc12 [Compound T060, N-(4-ethynylbenzo[d]thiazol-2-yl)-2,6-difluoro-3-(piperazin-1-yl)benzamide]",IC50,[1],5380 nM
same,IC50,[2],44 nM
same,IC50,[3],2140 nM
same,IC50,[4],1250 nM
"O=C(Nc1nc2c(Br)cccc2s1)c1c(F)cc(N2CCNCC2)cc1F [Compound T019, N-(4-bromobenzo[d]thiazol-2-yl)-2,6-difluoro-4-(piperazin-1-yl)benzamide hydrochloride]",IC50,[1],3170 nM
same,IC50,[2],11 nM
same,IC50,[3],668 nM
same,IC50,[4],760 nM
"C#Cc1cccc2sc(NC(=O)c3c(F)cc(N4CCNCC4)cc3F)nc12 [Compound T007, N-(4-ethynylbenzo[d]thiazol-2-yl)-2,6-difluoro-4-(piperazin-1-yl)benzamide]",IC50,[1],409 nM
same,IC50,[2],4 nM
same,"Effects on SLE by proteinuria, serum anti-dsDNA antibody levels and kidney histopathology",[5]; age 13 to 22 weeks,statistically significant beneficial effects
same,Urine protein score reduction in AUC,"[5]; age 13 to 22 weeks, vs vehicle, p=0.100",34%
same,Crescent scores reduction,[5]; [7],62%
same,Glomerulus diameters reduction,[5]; [7],38%
same,Protein cast scores reduction,[5]; [7],70%
same,Urine protein scores reduction,"[5]; mouse age 21 weeks, vs vehicle",55%
same,Summed kidney scores reduction,[5]; vs vehicle,34%
same,Survival rate,[6],improved the survival rate
same,Plasma MCP-1 concentration by ELISA,[6]; p<0.001 vs CLP-Vehicle,improved
same,"Kidney proinflammatory gene expression (IL6, TNFa, IL-1b, CCl2, KC) by Q-PCR",[6]; p<0.05 vs CLP-Vehicle,inhibited
same,IC50,[3],68.3 nM
same,IC50,[4],470 nM
